Laboratory results as given in patent US20180311247A1, “COMBINATION THERAPIES FOR TREATING CANCERS” (GILEAD SCIENCES, INC., priority 2015, published 2018).
Where two headings read alike, the source gives them in different places.

Experiments:
[1] = test system: type II collagen arthritis in female Lewis rats; assay: rat collagen-induced arthritis model (established type II collagen arthritis); assay type: in vivo; settings: for summed ankle histopathology (mean ± standard error), maximum value of 25: day 34
Experimental: This study evaluated the potential effects of BTK inhibitor in combination with JAK inhibitor in treating arthritis. Lewis rats were injected intradermally/subcutaneously (ID/SC) with porcine type II collagen to induce arthritis. Arthritic rats were treated with vehicle (20% Cremophor EL/10% EtOH/70% saline), Compound A1 (a BTK inhibitor), Compound B4 (a JAK inhibitor), Compound A1 and Compound B4, or Dex (dexamethasone). Compound A1 was administered orally either twice daily at 3, 10, or 20 mg/kg or once daily at 20 mg/kg; Compound B4 was administered orally daily at 2.5 mg/kg; dex was administered daily at 0.075 mg/kg, initiated on day 17. The study was terminated at day 34. Efficacy evaluation was based on body weights, daily ankle caliper measurements, ankle diameter expressed as area under the curve (AUC), terminal hind paw weights, and histopathologic evaluation of right ankles.
This model may reflect certain clinical and histopathologic parameters, such as inflammation, cartilage destruction, and bone resorption that occur in established type II collagen arthritis in female Lewis rats.
Ankle diameters were measured and compared for potential treatment effects. FIG. 1 depicts the measurements taken on Day 9, 13-34 for ankle diameter (in.) (mean±standard error) for the following groups: control (normal and disease), Compound A1 (20 mg/kg, daily), Compound A1 (3 mg/kg, twice daily), Compound B4 (2.5 mg/kg, twice daily), Compound A1 (20 mg/kg, daily) with Compound B4 (2.5 mg/kg, twice daily), Compound A1 (3 mg/kg, twice daily) with Compound B4 (2.5 mg/kg, twice daily) and Dex (0.075 mg/kg daily). In addition, the AUC total sum (day 17-34) (mean f standard error) was measured.
The following score systems were used to evaluate ankle inflammation, ankle pannus, ankle cartilage damage, ankle bone resorption, and periosteal new bone formation, which may represent treatment effects to ankle histology. The sum of the summed ankle histology scores for day 34, are provided herein.
Ankle inflammation scores as used herein have the following meaning: 0=normal; 0.5=minimal focus inflammation; 1=minimal infiltration of inflammatory cells in synovium/periarticular tissue; 2=mild infiltration; 3-moderate infiltration with moderate edema; 4=marked infiltration with marked edema; 5=severe infiltration with severe edema. Ankle pannus scores as used herein have the following meaning: 0=normal; 0.5=minimal infiltration of pannus in cartilage and subchondral bone, affects only marginal zones and affects only a few joints; 1=minimal infiltration of pannus in cartilage and subchondral bone, primarily affects marginal zones; 2=mild infiltration (<25% of tibia or tarsals at marginal zones); 3=moderate infiltration (26%-50% of tibia or small tarsals affected at marginal zones); 4=marked infiltration (51%-75% of tibia or tarsals affected at marginal zones); 5=severe infiltration (>75% of tibia or tarsals affected at marginal zones, severe distortion of overall architecture).

[2] = test system: human activated B cell (ABC) subtype DLBCL cell line, TMD8; assay: TMD8 cell viability (CellTiter Glo) growth inhibition assay; assay type: cell-based; settings: TMD8 cells; for cell growth inhibition over the dose range: four days, Compound D 0-90 nM, Compound A1 0-22 nM; for IC50: Homo sapiens, TMD8, 96 h, 96 hours, read-out: average IC50 (concentration that causes half maximal inhibition of cell growth)
Experimental: Material and Methods: The effect of the combination of a BET inhibitor, (2-cyclopropyl-6-(3,5-dimethylisoxazol-4-yl)-1H-benzo[d]imidazol-4-yl)di(pyridin-2-yl)methanol (Compound D), and BTK inhibitor (Compound A1) on growth inhibition of the human activated B cell (ABC) subtype DLBCL cell line, TMD8, was evaluated in vitro. TMD8 cells were dosed with a matrix of Compound D (0-90 nM) and compound A1 (0-22 nM) and treated for four days, after which cell viability was measured by a CellTiter Glo assay. A representative heatmap of this dose matrix for cell growth inhibition is shown in FIG. 2 (0% to 100% growth inhibition). […] Synergy was defined as the excess over the predicted additive interaction between the compounds using Bliss analysis.
Cells were plated at a density of 4,000 cells per well in 384-well (Grenier 781086) tissue culture black well plates already spotted with compounds by a Labcyte Echo liquid handler. […] The predicted response under Bliss additivity for any combination of drugs at a given concentration pair was determined by Ra+Rb−Ra*Rb, where Ra and Rb are the responses of Compounds D and A1 (i.e., cell growth inhibition). The total Bliss score was determined by summing the differences between the observed values and the predicted additive value at each pair of concentrations assayed. Only values where the difference is greater than the 95% confidence interval of the measurements are included in the sum.

[3] = Compound A1 3 mg/kg, twice daily, orally
[4] = Compound A1 10 mg/kg, twice daily, orally
[5] = Compound A1 20 mg/kg, daily, orally
[6] = Compound A1 20 mg/kg, twice daily, orally
[7] = Compound B4 2.5 mg/kg, twice daily, orally

For `CC#CC(=O)N1CC[C@@H](n2c(=O)n(-c3ccc(Oc4ccccc4)cc3)c3c(N)ncnc32)C1` [Compound A1, (R)-6-amino-9-(1-(but-2-ynoyl)pyrrolidin-3-yl)-7-(4-phenoxyphenyl)-7H-purin-8(9H)-one], the “ED-1 immunopositive osteoclast count (mean ± standard error)” value [1, 3] was 7±1.3, the “ankle diameter AUC total sum (day 17-34) (mean ± standard error)” value [1, 3] was 5.9±0.079 and the “percent inhibition of the AUC total sum (day 17-34)” value (shortened to “percent inhibition … (day 17-34)”) [1, 3] was 13%. For the same compound, the “percent inhibition of the ED-1 immunopositive osteoclast count” value [1, 3] was 65%, the “percent inhibition of the summed ankle histopathology” value [1, 3] was 10% and the “ED-1 immunopositive osteoclast count (mean ± standard error)” value [1, 4] was 8±1.9. For the same compound, the “ankle diameter AUC total sum (day 17-34) (mean ± standard error)” value [1, 4] was 5.9±0.102, the “percent inhibition … (day 17-34)” value [1, 4] was 9% and the “percent inhibition of the ED-1 immunopositive osteoclast count” value [1, 4] was 62%. The “percent inhibition of the summed ankle histopathology” value [1, 4] was 16%, the “ED-1 immunopositive osteoclast count (mean ± standard error)” value [1, 5] was 9±1.5 and the “ankle diameter AUC total sum (day 17-34) (mean ± standard error)” value [1, 5] was 5.9±0.096. For the same compound, the “percent inhibition … (day 17-34)” value [1, 5] was 13%, the “percent inhibition of the ED-1 immunopositive osteoclast count” value [1, 5] was 56% and the “percent inhibition of the summed ankle histopathology” value [1, 5] was 15%. For the same compound, the “ED-1 immunopositive osteoclast count (mean ± standard error)” value [1, 6] was 4±0.7, the “ankle diameter AUC total sum (day 17-34) (mean ± standard error)” value [1, 6] was 5.8±0.124 and the “percent inhibition … (day 17-34)” value [1, 6] was 15%. The “percent inhibition of the ED-1 immunopositive osteoclast count” value [1, 6] was 83%, the “percent inhibition of the summed ankle histopathology” value [1, 6] was 18% and the “summed ankle histopathology (mean ± standard error), maximum value of 25” value [1, 3] was 23±0.6. The “summed ankle histopathology (mean ± standard error), maximum value of 25” value [1, 4] was 21±1.4, the “summed ankle histopathology (mean ± standard error), maximum value of 25” value [1, 5] was 21±0.7 and the “summed ankle histopathology (mean ± standard error), maximum value of 25” value [1, 6] was 21±0.6. The “cell growth inhibition over the dose range” value [2] was “reduced cell growth”.
For `C[C@@H]1CCN(C(=O)CC#N)C[C@@H]1N(C)c1ncnc2[nH]ccc12` [Compound B4, 3-((3R,4R)-4-methyl-3-(methyl(7H-pyrrolo[2,3-d]pyrimidin-4-yl)amino)piperidin-1-yl)-3-oxopropanenitrile, reference compound], the “ED-1 immunopositive osteoclast count (mean ± standard error)” value [1, 7] was 16±1.7, the “ankle diameter AUC total sum (day 17-34) (mean ± standard error)” value [1, 7] was 5.6±0.083 and the “percent inhibition … (day 17-34)” value [1, 7] was 28%. For the same compound, the “percent inhibition of the ED-1 immunopositive osteoclast count” value [1, 7] was 14%, the “percent inhibition of the summed ankle histopathology” value [1, 7] was 23% and the “summed ankle histopathology (mean ± standard error), maximum value of 25” value [1, 7] was 19±1.4.
For `Cc1noc(C)c1-c1cc(C(O)(c2ccccn2)c2ccccn2)c2nc(C3CC3)[nH]c2c1` [Compound D, (2-cyclopropyl-6-(3,5-dimethylisoxazol-4-yl)-1H-benzo[d]imidazol-4-yl)di(pyridin-2-yl)methanol], the IC50 ([2]; Compound D alone) was 0.025 µM, the IC50 ([2]; in the presence of 5.5 nM of Compound A1) was 0.011 µM and the IC50 ([2]; in the presence of 11 nM of Compound A1) was 0.008 µM. For the same compound, the “cell growth inhibition over the dose range” value [2] was “reduced cell growth”.
`C[C@@H]1C[C@H]2[C@@H]3CCC4=CC(=O)C=C[C@]4(C)[C@@]3(F)[C@@H](O)C[C@]2(C)[C@@]1(O)C(=O)CO` [Dex, dexamethasone, reference compound] was tested, and the “ED-1 immunopositive osteoclast count (mean ± standard error)” value ([1]; Dex 0.075 mg/kg) was 4±1.4, the “percent inhibition … (day 17-34)” value ([1]; Dex 0.075 mg/kg) was 56% and the “percent inhibition of the ED-1 immunopositive osteoclast count” value ([1]; Dex 0.075 mg/kg) was 85%. For the same compound, the “percent inhibition of the summed ankle histopathology” value ([1]; Dex 0.075 mg/kg) was 51%, the “ankle diameter AUC total sum (day 17-34) (mean ± standard error)” value ([1]; Dex 0.075 mg/kg daily) was 5.2±0.069 and the “summed ankle histopathology (mean ± standard error), maximum value of 25” value ([1]; Dex 0.075 mg/kg daily) was 12±1.0.
